Assay results reported in patent publication US8119624B2, “Fused phenyl amido heterocyclic compounds” (Pfizer Inc., priority 2006, dated 2012).

Biological target: T1, Full-length glucokinase (beta cell isoform) (Homo sapiens, UniProt P35557)
T1 construct: Full-length glucokinase (beta cell isoform) was His-tagged at N-terminus; His tag (N); made in house
T1 sequence (P35557 1-465): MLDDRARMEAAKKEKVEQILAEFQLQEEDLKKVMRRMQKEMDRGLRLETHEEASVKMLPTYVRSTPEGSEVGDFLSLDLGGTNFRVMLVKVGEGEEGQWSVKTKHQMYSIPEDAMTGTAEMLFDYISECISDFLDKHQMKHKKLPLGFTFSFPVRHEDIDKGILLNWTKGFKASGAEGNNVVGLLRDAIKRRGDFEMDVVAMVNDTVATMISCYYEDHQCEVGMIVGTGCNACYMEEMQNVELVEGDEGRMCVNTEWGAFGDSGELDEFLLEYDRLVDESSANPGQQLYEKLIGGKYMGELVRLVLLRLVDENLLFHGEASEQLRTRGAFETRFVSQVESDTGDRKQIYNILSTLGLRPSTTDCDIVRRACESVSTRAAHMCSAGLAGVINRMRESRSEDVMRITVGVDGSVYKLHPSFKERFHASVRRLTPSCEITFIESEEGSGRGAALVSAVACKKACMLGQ
Assay: Glucokinase biochemical assay (PK/LDH-coupled, NADH depletion at 340 nm): % activation, EC50, % max activation
Conditions: 5 mM glucose; for activation at 10 µM: 10 uM compound, % Activation=(Va/Vo−1)×100, read-out: % Activation at 10 uM; for EC50: GK activation, read-out: EC50; for Emax: fitted maximum activation, read-out: % Max Activation
In short: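 Activation expressed as (Va/Vo−1)×100, where initial rates with and without compound come from NADH depletion at 340 nm over 200–900 s. Enzyme is His-tagged human beta-cell GK, full length, run at room temperature in HEPES buffer with 1 mM ATP and 5 mM glucose. DMSO 1%.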

SMILES | activation at 10 µM [%] | EC50 [nM] | Emax [%]
CS(=O)(=O)c1ccc(Oc2cc(C(=O)Nc3ccccn3)cc3scnc23)cc1 [Example 372, 4-[4-(Methylsulfonyl)phenoxy]-N-pyridin-2-yl-1,3-benzothiazole-6-carboxamide] | 29.3 | – | –
Cn1ccc(NC(=O)c2cc(OCc3ccccc3)c3c(c2)OC(C(F)F)C3)n1 (stereo not drawn) [Example 222, 4-Benzyloxy-2-difluoromethyl-2,3-dihydro-benzofuran-6-carboxylic acid (1-methyl-1H-pyrazol-3-yl)-amide] | 61.1 | > 10000 | –
Cc1nc(COc2cc(C(=O)Nc3ccn(C)n3)cc3c2CC(C)(C)O3)no1 [Example 96, 2,2-Dimethyl-4-(5-methyl-[1,2,4]oxadiazol-3-ylmethoxy)-2,3-dihydro-benzofuran-6-carboxylic acid (1-methyl-1H-pyrazol-3-yl)-amide] | 107 | 7300 | 148
COCC(C)Oc1cc(C(=O)Nc2ccn(C)n2)cc2c1CC(C)(C)O2 (stereo not drawn) [Example 84, 4-(2-Methoxy-1-methyl-ethoxy)-2,2-dimethyl-2,3-dihydro-benzofuran-6-carboxylic acid (1-methyl-1H-pyrazol-3-yl)-amide] | 58.4 | > 10000 | –
Cn1ccc(NC(=O)c2cc(Oc3cc(F)ccc3S(C)(=O)=O)c3c(c2)OC(C)(CO)C3)n1 (stereo not drawn) [Example 235, 4-(5-Fluoro-2-methanesulfonyl-phenoxy)-2-hydroxymethyl-2-methyl-2,3-dihydro-benzofuran-6-carboxylic acid (1-methyl-1H-pyrazol-3-yl)-amide] | 69.2 | > 10000 | –
Cn1ccc(NC(=O)c2cc(Oc3cc(F)ccc3C(=O)N3CCC3)c3c(c2)OC(C)(C)C3)n1 [Example 34, 4-[2-(Azetidine-1-carbonyl)-5-fluoro-phenoxy]-2,2-dimethyl-2,3-dihydro-benzofuran-6-carboxylic acid(1-methyl-1H-pyrazol-3-yl)-amide] | 75.1 | > 10000 | –
Cn1ccc(NC(=O)c2cc(Oc3cccc(S(C)(=O)=O)c3)c3c(c2)OC(C)(C)C3)n1 [Example 36, 4-(3-Methanesulfonyl-phenoxy)-2,2-dimethyl-2,3-dihydro-benzofuran-6-carboxylic acid(1-methyl-1H-pyrazol-3-yl)-amide] | 130 | 1100 | 149
Cc1ccc(NC(=O)c2cc(Oc3ccc(S(C)(=O)=O)cc3)c3cc(CN(C)C)oc3c2)nc1 [Example 319, 2-[(Dimethylamino)methyl]-N-(5-methylpyridin-2-yl)-4-[4-(methylsulfonyl)-phenoxy]-1-benzofuran-6-carboxamide] | 59.7 | 5000 | 90

Continued, values first:

activation at 10 µM [%] | EC50 [nM] | Emax [%] | SMILES
80.3 | 562 | 169 | COc1cnc(NC(=O)c2cc(Oc3ccc(S(C)(=O)=O)cc3)c3cc(C(=O)N(C)C)oc3c2)cn1 [Example 287, N6-(5-Methoxypyrazin-2-yl)-N2,N2-dimethyl-4-[4-(methylsulfonyl)phenoxy]-1-benzofuran-2,6-dicarboxamide]
186 | 480 | 169 | Cn1ccc(NC(=O)c2cc(Oc3cnc(C(=O)N4CCC4)nc3)c3c(c2)OC(C)(C)C3)n1 [Example 172, 4-[2-(Azetidine-1-carbonyl)-pyrimidin-5-yloxy]-2,2-dimethyl-2,3-dihydro-benzofuran-6-carboxylic acid (1-methyl-1H-pyrazol-3-yl)-amide]
91.8 | 330 | 95 | Cc1ccc(NC(=O)c2cc(Oc3ccc(S(C)(=O)=O)cc3)c3c(c2)OC(C)(CO)C3)nc1 (stereo not drawn) [Example 230, 2-Hydroxymethyl-4-(4-methanesulfonyl-phenoxy)-2-methyl-2,3-dihydro-benzofuran-6-carboxylic acid (5-methyl-pyridin-2-yl)-amide]
139 | 72 | 131 | Cn1ccc(NC(=O)c2cc(Oc3cc(F)c(C(=O)N4CCC4)c(F)c3)c3c(c2)OC(C)(C)C3)n1 [Example 110, 4-[4-(Azetidine-1-carbonyl)-3,5-difluoro-phenoxy]-2,2-dimethyl-2,3-dihydro-benzofuran-6-carboxylic acid (1-methyl-1H-pyrazol-3-yl)-amide]
325 | 150 | 283 | Cn1ncc(NC(=O)c2cc(Oc3ccc(S(C)(=O)=O)c(F)c3)c3c(c2)OC(C)(C)C3)n1 [Example 117, 4-(3-Fluoro-4-methanesulfonyl-phenoxy)-2,2-dimethyl-2,3-dihydro-benzofuran-6-carboxylic acid (2-methyl-2H-[1,2,3]triazol-4-yl)-amide]
121 | 360 | 108 | Cn1ccc(NC(=O)c2cc(Oc3ccc(C(=O)N4CCC4)c(F)c3)c3c(c2)OC(CO)C3)n1 (stereo not drawn) [Example 202, 4-[4-(Azetidine-1-carbonyl)-3-fluoro-phenoxy]-2-hydroxymethyl-2,3-dihydro-benzofuran-6-carboxylic acid (1-methyl-1H-pyrazol-3-yl)-amide]
83.3 | 80.7 | 101 | CN(C)C(=O)c1ccc(Oc2cc(C(=O)Nc3ccn(C)n3)cc3c2CC(C)(C)O3)cc1F [Example 54, 4-(4-Dimethylcarbamoyl-3-fluoro-phenoxy)-2,2-dimethyl-2,3-dihydro-benzofuran-6-carboxylic acid(1-methyl-1H-pyrazol-3-yl)-amide]
103 | 269 | 100 | CN(C)C(=O)c1ccc(Oc2cc(C(=O)Nc3ccon3)cc3c2CC(C)(C)O3)cc1F [Example 144, 4-(4-Dimethylcarbamoyl-3-fluoro-phenoxy)-2,2-dimethyl-2,3-dihydro-benzofuran-6-carboxylic acid isoxazol-3-ylamide]
80.5 | 200 | 79 | Cc1ccc(NC(=O)c2cc(Oc3ccc(S(C)(=O)=O)cc3F)c3c(c2)OC(C)(C)C3)nc1 [Example 120, 4-(2-Fluoro-4-methanesulfonyl-phenoxy)-2,2-dimethyl-2,3-dihydro-benzofuran-6-carboxylic acid (5-methyl-pyridin-2-yl)-amide]
49.5 | 42.8 | 53 | Cc1ccc(NC(=O)c2cc(Oc3ccc(C(=O)N(C)C)c(F)c3)c3c(c2)OC(C)(C)C3)nc1 [Example 148, 4-(4-Dimethylcarbamoyl-3-fluoro-phenoxy)-2,2-dimethyl-2,3-dihydro-benzofuran-6-carboxylic acid (5-methyl-pyridin-2-yl)-amide]
146 | 660 | 175 | COCCNC(=O)c1ccc(Oc2cc(C(=O)Nc3ccn(C)n3)cc3c2CC(C)(C)O3)cc1F [Example 68, 4-[3-Fluoro-4-(2-methoxy-ethylcarbamoyl)-phenoxy]-2,2-dimethyl-2,3-dihydro-benzofuran-6-carboxylic acid(1-methyl-1H-pyrazol-3-yl)-amide]
137 | 37 | 118 | CCS(=O)(=O)c1ccc(Oc2cc(C(=O)Nc3ccc(C)cn3)cc3c2CC(C)(C)O3)cc1 [Example 126, 4-(4-Ethanesulfonyl-phenoxy)-2,2-dimethyl-2,3-dihydro-benzofuran-6-carboxylic acid (5-methyl-pyridin-2-yl)-amide]
